Species on record: Rattus norvegicus
Experiment: DrugMatrix - Regimen: Daily Repeat
Format: toxicity, organism-based, Sprague-Dawley
Parameters: regimen Daily Repeat, gender Male, age 6-8 weeks
Details: in vivo, iv, vehicle 100 % SALINE; for ABSOLUTE BASOPHIL / ABSOLUTE EOSINOPHIL / ABSOLUTE LYMPHOCYTE / ABSOLUTE MONOCYTE / ABSOLUTE SEGMENTED NEUTROPHIL / BASOPHIL / EOSINOPHIL / ERYTHROCYTE COUNT / HEMATOCRIT / HEMOGLOBIN / LEUKOCYTE COUNT / LYMPHOCYTE / MEAN CORPUSCULAR HEMOGLOBIN / MEAN CORPUSCULAR HEMOGLOBIN CONCENTRATION / MEAN CORPUSCULAR VOLUME / MONOCYTE / NEUTROPHIL / NUCLEATED RED BLOOD CELLS / PLATELET COUNT: tissue Blood; for ALANINE AMINOTRANSFERASE / ALBUMIN / ALKALINE PHOSPHATASE / ASPARTATE AMINOTRANSFERASE / BLOOD UREA NITROGEN / CARBON DIOXIDE / CHLORIDE / CHOLESTEROL / CREATINE PHOSPHOKINASE / CREATININE / GLUCOSE / LACTATE DEHYDROGENASE / LIPASE / PHOSPHORUS / POTASSIUM / SODIUM / TOTAL BILIRUBIN / TOTAL PROTEIN / URIC ACID: tissue Plasma
[1] = 2 mg/kg, 72 h, dose level High, time 3 day
[2] = 2 mg/kg, 120 h, dose level High, time 5 day
[3] = […], 72 h, dose 0.21 mg/Kg, dose level Low, time 3 day
[4] = […], 120 h, dose 0.21 mg/Kg, dose level Low, time 5 day

O=C1c2c(O)ccc(O)c2C(=O)c2c(NCCNCCO)ccc(NCCNCCO)c21 [MITOXANTRONE]
ABSOLUTE BASOPHIL [1]: 0 CELLS/uL
ABSOLUTE EOSINOPHIL [1]: 0 CELLS/uL
ABSOLUTE LYMPHOCYTE [1]: 1529.67 CELLS/uL
ABSOLUTE MONOCYTE [1]: 0 CELLS/uL
ABSOLUTE SEGMENTED NEUTROPHIL [1]: 137 CELLS/uL
BASOPHIL [1]: 0%
EOSINOPHIL [1]: 0%
ERYTHROCYTE COUNT [1]: 5.38 x10E6/uL
HEMATOCRIT [1]: 34.37%
HEMOGLOBIN [1]: 12.83 G/DL
LEUKOCYTE COUNT [1]: 1.67 x10E3/uL
LYMPHOCYTE [1]: 91.67%
MEAN CORPUSCULAR HEMOGLOBIN [1]: 23.9 pg
MEAN CORPUSCULAR HEMOGLOBIN CONCENTRATION [1]: 37.37 G/DL
MEAN CORPUSCULAR VOLUME [1]: 63.87 fL
MONOCYTE [1]: 0%
NEUTROPHIL [1]: 8.33%
NUCLEATED RED BLOOD CELLS [1]: 0 /100WBC
PLATELET COUNT [1]: 1484 x10E3/uL
ALANINE AMINOTRANSFERASE [1]: 42.67 u/L
ALBUMIN [1]: 4.43 G/DL
ALKALINE PHOSPHATASE [1]: 444 u/L
ASPARTATE AMINOTRANSFERASE [1]: 64 u/L
BLOOD UREA NITROGEN [1]: 15.67 mg/dL
CARBON DIOXIDE [1]: 23 mmol/L
CHLORIDE [1]: 104.67 MEQ/L
CHOLESTEROL [1]: 79.33 mg/dL
CREATINE PHOSPHOKINASE [1]: 220.67 u/L
CREATININE [1]: 0.17 mg/dL
GLUCOSE [1]: 180.33 mg/dL
LACTATE DEHYDROGENASE [1]: 145 u/L
LIPASE [1]: 10 u/L
PHOSPHORUS [1]: 12.2 mg/dL
POTASSIUM [1]: 5.98 MEQ/L
SODIUM [1]: 146.2 MEQ/L
TOTAL BILIRUBIN [1]: 0.13 mg/dL
TOTAL PROTEIN [1]: 6.1 G/DL
URIC ACID [1]: 2.67 mg/dL
ABSOLUTE BASOPHIL [2]: 0 CELLS/uL
ABSOLUTE EOSINOPHIL [2]: 0 CELLS/uL
ABSOLUTE LYMPHOCYTE [2]: 1225 CELLS/uL
ABSOLUTE MONOCYTE [2]: 0 CELLS/uL
ABSOLUTE SEGMENTED NEUTROPHIL [2]: 8.33 CELLS/uL
BASOPHIL [2]: 0%
EOSINOPHIL [2]: 0%
ERYTHROCYTE COUNT [2]: 5.82 x10E6/uL
HEMATOCRIT [2]: 35.23%
HEMOGLOBIN [2]: 13.37 G/DL
LEUKOCYTE COUNT [2]: 1.23 x10E3/uL
LYMPHOCYTE [2]: 99.33%
MEAN CORPUSCULAR HEMOGLOBIN [2]: 23.07 pg
MEAN CORPUSCULAR HEMOGLOBIN CONCENTRATION [2]: 37.97 G/DL
MEAN CORPUSCULAR VOLUME [2]: 60.73 fL
MONOCYTE [2]: 0%
NEUTROPHIL [2]: 0.67%
NUCLEATED RED BLOOD CELLS [2]: 0 /100WBC
PLATELET COUNT [2]: 946 x10E3/uL
ALANINE AMINOTRANSFERASE [2]: 32.33 u/L
ALBUMIN [2]: 3.37 G/DL
ALKALINE PHOSPHATASE [2]: 255.33 u/L
ASPARTATE AMINOTRANSFERASE [2]: 47.67 u/L
BLOOD UREA NITROGEN [2]: 15.67 mg/dL
CARBON DIOXIDE [2]: 29.33 mmol/L
CHLORIDE [2]: 105 MEQ/L
CHOLESTEROL [2]: 107 mg/dL
CREATINE PHOSPHOKINASE [2]: 271.67 u/L
CREATININE [2]: 0.12 mg/dL
GLUCOSE [2]: 142.33 mg/dL
LACTATE DEHYDROGENASE [2]: 141.33 u/L
LIPASE [2]: 9.67 u/L
PHOSPHORUS [2]: 11.97 mg/dL
POTASSIUM [2]: 6.74 MEQ/L
SODIUM [2]: 146.57 MEQ/L
TOTAL BILIRUBIN [2]: 0.1 mg/dL
TOTAL PROTEIN [2]: 5.2 G/DL
URIC ACID [2]: 1.33 mg/dL
ABSOLUTE BASOPHIL [3]: 0 CELLS/uL
ABSOLUTE EOSINOPHIL [3]: 34.67 CELLS/uL
ABSOLUTE LYMPHOCYTE [3]: 7414.67 CELLS/uL
ABSOLUTE MONOCYTE [3]: 92.67 CELLS/uL
ABSOLUTE SEGMENTED NEUTROPHIL [3]: 224.67 CELLS/uL
BASOPHIL [3]: 0%
EOSINOPHIL [3]: 0.33%
ERYTHROCYTE COUNT [3]: 5.52 x10E6/uL
HEMATOCRIT [3]: 34.13%
HEMOGLOBIN [3]: 12.87 G/DL
LEUKOCYTE COUNT [3]: 7.77 x10E3/uL
LYMPHOCYTE [3]: 96%
MEAN CORPUSCULAR HEMOGLOBIN [3]: 23.37 pg
MEAN CORPUSCULAR HEMOGLOBIN CONCENTRATION [3]: 37.73 G/DL
MEAN CORPUSCULAR VOLUME [3]: 61.87 fL
MONOCYTE [3]: 1%
NEUTROPHIL [3]: 2.67%
NUCLEATED RED BLOOD CELLS [3]: 0 /100WBC
PLATELET COUNT [3]: 1537 x10E3/uL
ALANINE AMINOTRANSFERASE [3]: 46 u/L
ALBUMIN [3]: 4.5 G/DL
ALKALINE PHOSPHATASE [3]: 370.67 u/L
ASPARTATE AMINOTRANSFERASE [3]: 75 u/L
BLOOD UREA NITROGEN [3]: 14.33 mg/dL
CARBON DIOXIDE [3]: 24 mmol/L
CHLORIDE [3]: 103.33 MEQ/L
CHOLESTEROL [3]: 77.33 mg/dL
CREATINE PHOSPHOKINASE [3]: 192 u/L
CREATININE [3]: 0.24 mg/dL
GLUCOSE [3]: 163 mg/dL
LACTATE DEHYDROGENASE [3]: 207.67 u/L
LIPASE [3]: 9.67 u/L
PHOSPHORUS [3]: 13.57 mg/dL
POTASSIUM [3]: 7.01 MEQ/L
SODIUM [3]: 145.1 MEQ/L
TOTAL BILIRUBIN [3]: 0.23 mg/dL
TOTAL PROTEIN [3]: 6.23 G/DL
URIC ACID [3]: 2.6 mg/dL
ABSOLUTE BASOPHIL [4]: 0 CELLS/uL
ABSOLUTE EOSINOPHIL [4]: 26.67 CELLS/uL
ABSOLUTE LYMPHOCYTE [4]: 5180 CELLS/uL
ABSOLUTE MONOCYTE [4]: 42.67 CELLS/uL
ABSOLUTE SEGMENTED NEUTROPHIL [4]: 217.33 CELLS/uL
BASOPHIL [4]: 0%
EOSINOPHIL [4]: 0.67%
ERYTHROCYTE COUNT [4]: 5.12 x10E6/uL
HEMATOCRIT [4]: 32.83%
HEMOGLOBIN [4]: 12.5 G/DL
LEUKOCYTE COUNT [4]: 5.47 x10E3/uL
LYMPHOCYTE [4]: 94.33%
MEAN CORPUSCULAR HEMOGLOBIN [4]: 24.47 pg
MEAN CORPUSCULAR HEMOGLOBIN CONCENTRATION [4]: 38.1 G/DL
MEAN CORPUSCULAR VOLUME [4]: 64.27 fL
MONOCYTE [4]: 1%
NEUTROPHIL [4]: 4%
NUCLEATED RED BLOOD CELLS [4]: 0.33 /100WBC
PLATELET COUNT [4]: 1671.33 x10E3/uL
ALANINE AMINOTRANSFERASE [4]: 42.33 u/L
ALBUMIN [4]: 4.27 G/DL
ALKALINE PHOSPHATASE [4]: 328.67 u/L
ASPARTATE AMINOTRANSFERASE [4]: 67 u/L
BLOOD UREA NITROGEN [4]: 15 mg/dL
CARBON DIOXIDE [4]: 24.33 mmol/L
CHLORIDE [4]: 107.67 MEQ/L
CHOLESTEROL [4]: 77.67 mg/dL
CREATINE PHOSPHOKINASE [4]: 193.33 u/L
CREATININE [4]: 0.25 mg/dL
GLUCOSE [4]: 163.33 mg/dL
LACTATE DEHYDROGENASE [4]: 101 u/L
LIPASE [4]: 12 u/L
PHOSPHORUS [4]: 11.77 mg/dL
POTASSIUM [4]: 6.53 MEQ/L
SODIUM [4]: 146.7 MEQ/L
TOTAL BILIRUBIN [4]: 0.2 mg/dL
TOTAL PROTEIN [4]: 5.87 G/DL
URIC ACID [4]: 1.8 mg/dL

— ChEMBL document CHEMBL3885881, “DrugMatrix”
